For this assay, the target named is T1, ACAT (Rattus norvegicus, UniProt O70536).
T1 construct: The rat peritoneal-derived macrophage was prepared; endogenous in cells; host or cells: rat peritoneal macrophages (primary)
T1 sequence (O70536 1-545): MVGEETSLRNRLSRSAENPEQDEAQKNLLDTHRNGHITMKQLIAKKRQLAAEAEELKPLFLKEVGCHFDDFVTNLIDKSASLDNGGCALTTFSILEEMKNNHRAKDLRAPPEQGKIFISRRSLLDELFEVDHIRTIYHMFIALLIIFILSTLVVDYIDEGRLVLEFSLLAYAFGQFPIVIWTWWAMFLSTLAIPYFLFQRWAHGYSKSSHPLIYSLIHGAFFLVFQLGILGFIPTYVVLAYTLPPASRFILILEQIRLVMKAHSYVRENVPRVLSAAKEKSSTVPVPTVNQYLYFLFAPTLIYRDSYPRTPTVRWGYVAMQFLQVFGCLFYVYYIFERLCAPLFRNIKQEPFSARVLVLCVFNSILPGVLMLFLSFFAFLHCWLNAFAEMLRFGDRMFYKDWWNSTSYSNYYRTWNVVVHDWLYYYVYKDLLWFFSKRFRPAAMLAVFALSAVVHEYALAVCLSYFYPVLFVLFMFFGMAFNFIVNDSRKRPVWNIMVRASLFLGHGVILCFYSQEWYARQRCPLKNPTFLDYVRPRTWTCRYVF
As to the kind of experiment: Assay of ACAT inhibitory activity in the macrophage derived from rat peritoneal. Format: cell-based. The settings on record: [9,10-3H]oleic acid, exogenous cholesterol in liposome. Here is the method: 2. Assay of ACAT inhibitory activity in the macrophage derived from rat peritoneal:
The rat peritoneal-derived macrophage was prepared according to the method disclosed in the literature: Biochimica et Biophysica Acta, 1126, 73-80, 1992. The ACAT activity was determined by a modified method of the method disclosed in the above literature: Biochimica et Biophysica Acta, 1126, 73-80, 1992, i.e., using radioactive [9,10-^3H]oleic acid and exogenous cholesterol contained in the liposome which was re-constituted according to the method disclosed in the literature: Biochimica et Biophysica Acta, 1213, 127-134, 1994, and calculated from the radioactivity of the labeled cholesterolyl oleate.

As a reminder, the IC50 is the concentration needed to halve the response being measured. With `CCCCn1cc(C)c(-c2cc(C#CCN(CC)CC)ccc2OC)c(NC(=O)Nc2c(C(C)C)cccc2C(C)C)c1=O` [Example 18, N-[1-butyl-2-oxo-4-[5-{3-(diethylamino)-1-propynyl}-2-methoxy]phenyl-5-methyl-1,2-dihydropyridin-3-yl]-N′-(2,6-diisopropylphenyl) urea], 16 nM corresponded to half-maximal inhibition (IC50).

The values above are taken from US6452008B2, “Pyridone derivatives and process for preparing the same” (Sumitomo Pharmaceuticals Company, Limited, priority 1998, dated 2002).
